Laboratory results published in ChEMBL document CHEMBL3301361, “Experimental in vitro DMPK and physicochemical data on a set of publicly disclosed compounds”.
≈ marks a conversion by molar mass, not a printed value.

How the values were obtained:
physchem [1] = test: physchem
physchem [2] = settings: pH 7.4 buffer
physchem [3] = settings: octan-1-ol/water, pH 7.4, LogD7.4
in vitro [4] = settings: SD, HW or BN, rat, plasma
in vitro [5] = settings: hepatocytes
in vitro [6] = settings: human, hepatocytes
in vitro [7] = settings: human
in vitro [8] = settings: human, plasma

SMILES	pKa (physchem [1])	logD (physchem [3])	hepatocyte CLint (in vitro [5])	hepatocyte CLint (in vitro [6])	other results
COc1ccc(OC)c(C(O)CNC(=O)CN)c1 (stereo unspecified) [MIDODRINE]	7.59				
CC(C)(C)NS(=O)(=O)c1cncc(-c2ccc3nc(NC(=O)NCC(=O)N4CCOCC4)nn3c2)c1		0.96	5 µL/min/1e6 cells	3.39 µL/min/1e6 cells	solubility thermodynamic (physchem [2]): 53.7 µM (≈ 27.7 µg/mL); fraction unbound at 5 h (in vitro [4]): 0.535; microsomal CLint (in vitro [7]; liver microsomes): 5 µL/min/mg
CCOC(=O)N1CCC2(CC1)N=C(N)c1sccc1N2	10.5				
C[C@]12CCC(=O)C=C1C=C[C@@H]1[C@@H]2CC[C@@]2(C)[C@H]1CC[C@@]21CCC(=O)O1 [CANRENONE]		3.2	45.7 µL/min/1e6 cells	6.61 µL/min/1e6 cells	fraction unbound at 5 h (in vitro [4]): 0.0383; microsomal CLint (in vitro [7]; liver microsomes): 14.4 µL/min/mg; fraction unbound at 5 h (in vitro [8]; PPB): 0.0594
NC1=NC(c2ccco2)Nc2ccccc21 (stereo unspecified)	9.13				
O=C1COC2(CCN(S(=O)(=O)c3ccc(-c4ccc5cnccc5c4)cc3)CC2)CN1C1CC1		3.32	> 150 µL/min/1e6 cells	> 150 µL/min/1e6 cells	solubility thermodynamic (physchem [2]): 2.2 µM (≈ 1.05 µg/mL); microsomal CLint (in vitro [7]; liver microsomes): 115 µL/min/mg; fraction unbound at 5 h (in vitro [8]; PPB): 0.0018
CCc1nc2c(C)cc(C)nc2[nH]1	5.5				
O=C(O)C[C@H]1CC[C@H](c2ccc(-c3ccc(Nc4ccc(C(F)(F)F)nc4)cn3)cc2)CC1		3.8	11.5 µL/min/1e6 cells	< 3 µL/min/1e6 cells	solubility thermodynamic (physchem [2]): 1.1 µM (≈ 0.501 µg/mL); microsomal CLint (in vitro [7]; liver microsomes): < 3 µL/min/mg
O=C(c1ccc(F)cc1)C1CCN(CCn2c(=O)[nH]c3ccccc3c2=O)CC1 [KETANSERIN]			24.6 µL/min/1e6 cells	30.2 µL/min/1e6 cells	fraction unbound at 5 h (in vitro [4]): 0.0064; fraction unbound at 5 h (in vitro [8]; PPB): 0.0968
CCOC(=O)N1CCC(Nc2ccccn2)CC1	6.6				
COc1cccc2c1c(NS(=O)(=O)c1ccc(Cl)s1)nn2Cc1cccc(CNC(=O)[C@@H]2COCCN2)c1		1.61	26 µL/min/1e6 cells	20 µL/min/1e6 cells	solubility thermodynamic (physchem [2]): 27.5 µM (≈ 15.8 µg/mL); fraction unbound at 5 h (in vitro [4]): 0.0156; microsomal CLint (in vitro [7]; microsomes): 40.5 µL/min/mg; fraction unbound at 5 h (in vitro [8]; PPB): 0.016
Cc1ccnc(NCc2c(O)ccc3ccccc23)c1	6.6				
C[C@H]1CN(Cc2cc(Cl)ccc2OCC(=O)O)CCN1C(=O)Cc1ccc(F)cc1			< 3 µL/min/1e6 cells	< 3 µL/min/1e6 cells	fraction unbound at 5 h (in vitro [4]): 0.0928; microsomal CLint (in vitro [7]; microsomes): < 3 µL/min/mg; fraction unbound at 5 h (in vitro [8]): 0.0287
NCCc1ccc(Cl)cc1	10.1				
NC1=NC(c2ccccc2)Nc2ccccc21 (stereo unspecified)	9.83				
Cc1ncc[nH]1	7.8				
CN(C)CCCOc1nn(Cc2ccccc2)c2ccccc12 [BENZYDAMINE]		2.4	> 150 µL/min/1e6 cells	7.76 µL/min/1e6 cells	microsomal CLint (in vitro [7]; microsomes): 17.8 µL/min/mg

SMILES	pKa (physchem [1])	logD (physchem [3])	hepatocyte CLint (in vitro [5])	hepatocyte CLint (in vitro [6])	other results
Cc1cc(F)ccc1-n1nc(C(F)(F)F)cc1-c1ccc2c(c1)NC(=O)CO2			28.2 µL/min/1e6 cells	10.7 µL/min/1e6 cells	fraction unbound at 5 h (in vitro [4]): 0.19; microsomal CLint (in vitro [7]; liver microsomes): 14.4 µL/min/mg
C[C@H](Oc1ccc(Cl)cc1CN1CCN(C(=O)Cc2ccc(Cl)cc2)[C@@H](C)C1)C(=O)O			< 3 µL/min/1e6 cells	4.7 µL/min/1e6 cells	microsomal CLint (in vitro [7]; liver microsomes): < 3 µL/min/mg; fraction unbound at 5 h (in vitro [8]): 0.0256
c1ccc(CSc2nc3ccccc3o2)nc1	4.3				
COc1ccc(CNc2cc(C)ccn2)c(O)c1	6.8				
Cc1nn(-c2ccc(F)cc2)c(NS(=O)(=O)c2ccc(C#N)cc2)c1C(=O)N[C@@H](C)C(C)(C)C		0.45	6 µL/min/1e6 cells	< 3 µL/min/1e6 cells	fraction unbound at 5 h (in vitro [4]): 0.0801; fraction unbound at 5 h (in vitro [8]; PPB): 0.0437
Cc1ccccc1-n1c(Cn2nc(-c3ccc(O)c(F)c3)c3c(N)ncnc32)nc2cccc(C)c2c1=O		3.55	44.7 µL/min/1e6 cells	39.8 µL/min/1e6 cells	solubility thermodynamic (physchem [2]): 25.1 µM (≈ 12.7 µg/mL); fraction unbound at 5 h (in vitro [4]): 0.0313; fraction unbound at 5 h (in vitro [8]; PPB): 0.02
Cc1nc2c(OCc3ccccc3)cccn2c1CC#N	5.6				
O=C(O)/C=C/c1cccnc1	4.4				
NC1=NC(C2CC2)Cc2ccccc21 (stereo unspecified)	> 11				
COc1ccc2c3c1O[C@H]1C[C@@H](O)C=C[C@@]31CCN(C)C2 [GALANTAMINE]	8.21				
NCC(Oc1cc(Cl)ccc1Cl)c1ccccc1 (stereo unspecified)	8.5				
O=C(NCC1(O)CCCCCC1)c1cc(-n2ncc(=O)[nH]c2=O)ccc1Cl		0.26	< 3 µL/min/1e6 cells	< 3 µL/min/1e6 cells	fraction unbound at 5 h (in vitro [4]): 0.129; microsomal CLint (in vitro [7]; liver microsomes): < 3 µL/min/mg; fraction unbound at 5 h (in vitro [8]; PPB): 0.24
CN1CCN(c2nc3ccccc3cc2Cn2nc(-c3ccc4nc(N)sc4c3)c3c(N)ncnc32)CC1		3.09	81 µL/min/1e6 cells	7.59 µL/min/1e6 cells	solubility thermodynamic (physchem [2]): 100 µM (≈ 52.3 µg/mL); microsomal CLint (in vitro [7]; liver microsomes): 72 µL/min/mg
O=C(c1ccccc1)N1CCN(Cc2ccccc2)CC1	6.2				
O=c1[nH]c2c(O)ccc([C@@H](O)CNCCSCCCNCCc3ccccc3)c2s1		0.12	9 µL/min/1e6 cells	< 3 µL/min/1e6 cells	solubility thermodynamic (physchem [2]): 1150 µM (≈ 514 µg/mL); microsomal CLint (in vitro [7]; liver microsomes): 5 µL/min/mg
CCc1ncc[nH]1	7.8				
